# From ChEMBL document CHEMBL1201862, “PubChem BioAssay data set” (2004)
# Activity calls are given as the source filed them.
# Key:
# [1] = viability of HCT116 lacking mutant beta-catenin – cell-based, human colon tumor, dose response (AID 1045); assay type: functional;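 also: HCT116 colon tumor cells with beta catenin knocked out; cells exposed to compound for 60 hours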
# Ephrin type-A receptor 4 = Ephrin type-A receptor 4 (Mus musculus, UniProt Q03137); experiment: EphA4 ligand-binding antagonists – biochemical, colorimetric, mouse EphA4, primary screen (AID 689); assay type: functional
# Chain of Ephrin type-A receptor 4 (Q03137 whole entry): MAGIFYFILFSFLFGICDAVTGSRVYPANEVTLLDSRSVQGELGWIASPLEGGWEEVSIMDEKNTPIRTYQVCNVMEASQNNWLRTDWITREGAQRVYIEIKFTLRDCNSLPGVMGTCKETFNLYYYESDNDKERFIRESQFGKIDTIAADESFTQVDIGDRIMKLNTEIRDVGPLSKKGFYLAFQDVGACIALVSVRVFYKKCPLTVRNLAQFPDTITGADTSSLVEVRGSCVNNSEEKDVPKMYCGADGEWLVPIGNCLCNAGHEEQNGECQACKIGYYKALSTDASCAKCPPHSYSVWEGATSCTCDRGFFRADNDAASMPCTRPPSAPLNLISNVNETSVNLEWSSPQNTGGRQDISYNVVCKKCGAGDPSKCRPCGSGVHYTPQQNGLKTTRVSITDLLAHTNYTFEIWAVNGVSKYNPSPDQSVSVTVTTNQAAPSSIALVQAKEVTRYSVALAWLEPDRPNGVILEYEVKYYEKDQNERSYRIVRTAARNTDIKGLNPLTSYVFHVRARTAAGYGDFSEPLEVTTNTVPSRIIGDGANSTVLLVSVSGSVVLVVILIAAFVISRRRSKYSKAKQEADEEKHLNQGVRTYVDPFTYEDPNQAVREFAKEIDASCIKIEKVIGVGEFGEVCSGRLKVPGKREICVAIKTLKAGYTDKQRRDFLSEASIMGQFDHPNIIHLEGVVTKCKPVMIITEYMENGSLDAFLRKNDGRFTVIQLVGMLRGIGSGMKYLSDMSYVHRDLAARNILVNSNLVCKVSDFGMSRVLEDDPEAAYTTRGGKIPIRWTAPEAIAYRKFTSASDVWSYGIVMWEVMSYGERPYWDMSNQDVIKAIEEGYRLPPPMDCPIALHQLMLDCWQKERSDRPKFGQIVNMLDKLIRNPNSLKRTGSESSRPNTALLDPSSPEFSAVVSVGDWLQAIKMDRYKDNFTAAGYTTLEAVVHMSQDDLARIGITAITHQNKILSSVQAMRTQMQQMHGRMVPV
# [2] = viability of PTEN-deleted HCT116 cells – cell-based, HCT116 PTEN knockout, dose response (AID 1047); assay type: functional;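 also: HCT116 colon tumor cells with PTEN knocked out; cells exposed to compound for 60 hours before readout; potency for loss of cell viability measured by luminescence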
# [3] = target: T1, Polyadenylate-binding protein 1 (Homo sapiens, UniProt P11940); experiment: MLLE domain peptide-binding blockers, IC50 – biochemical, fluorescence polarization, FITC-PAM2 peptide, dose response (AID 602259); assay type: functional; details: read-out: IC50_Mean
# T1 sequence (P11940 whole entry, the tested form may be a part): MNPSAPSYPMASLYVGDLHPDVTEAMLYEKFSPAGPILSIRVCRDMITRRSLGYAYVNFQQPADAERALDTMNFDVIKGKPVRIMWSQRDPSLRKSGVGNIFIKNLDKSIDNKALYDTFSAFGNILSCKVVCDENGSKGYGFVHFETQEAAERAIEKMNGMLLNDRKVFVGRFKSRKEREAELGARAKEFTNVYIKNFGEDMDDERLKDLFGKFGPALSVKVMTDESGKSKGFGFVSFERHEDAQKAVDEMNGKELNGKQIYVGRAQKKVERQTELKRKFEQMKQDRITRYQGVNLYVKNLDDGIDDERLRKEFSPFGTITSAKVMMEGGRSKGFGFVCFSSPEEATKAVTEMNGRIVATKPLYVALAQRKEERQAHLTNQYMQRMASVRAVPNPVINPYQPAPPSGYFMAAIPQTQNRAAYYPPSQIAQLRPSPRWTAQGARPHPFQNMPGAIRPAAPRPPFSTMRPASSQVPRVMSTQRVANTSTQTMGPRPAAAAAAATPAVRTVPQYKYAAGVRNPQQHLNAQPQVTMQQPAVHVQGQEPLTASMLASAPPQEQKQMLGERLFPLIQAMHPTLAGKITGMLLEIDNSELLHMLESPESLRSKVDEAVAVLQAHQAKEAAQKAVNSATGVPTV
# Nonstructural protein 1 = Nonstructural protein 1 (Influenza A virus, UniProt Q194T2); assay type: functional, Influenza A virus (A/California/07/2009(H1N1))
# Chain of Nonstructural protein 1 (Q194T2 whole entry): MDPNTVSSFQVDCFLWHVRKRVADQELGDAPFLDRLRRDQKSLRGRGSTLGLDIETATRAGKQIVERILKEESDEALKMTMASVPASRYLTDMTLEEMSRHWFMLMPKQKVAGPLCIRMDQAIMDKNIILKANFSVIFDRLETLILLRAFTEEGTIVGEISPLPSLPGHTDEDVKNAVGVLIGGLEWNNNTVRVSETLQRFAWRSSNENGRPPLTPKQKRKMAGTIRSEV
# Vero [4] = experiment: cells; assay type: functional; details: Chlorocebus sabaeus
# Vero [5] = experiment: mammalian cell viability reduction – secondary assay, cytotoxicity control for West Nile virus antiviral project, dose response (AID 1650); assay type: functional; details: Chlorocebus sabaeus
# [6] = target: T1, Polyadenylate-binding protein 1; experiment: MLLE binding blockers, Cy5 peptide tracer – biochemical, fluorescence polarization, Cy5-PAM2 peptide, secondary, miRNA deadenylation inhibitor project, dose response (AID 602260); assay type: functional; details: read-out: IC50_Mean
# [7] = M. tuberculosis H37Rv growth inhibitors, H37Rv strain (AID 1626); assay type: functional
# [8] = target: T2, Zinc finger protein mex-5 (Caenorhabditis elegans, UniProt Q9XUB2); experiment: potency of MEX-5 RNA-binding blockers – biochemical, C. elegans, fluorescence polarization, dose response (AID 1960)
# T2 sequence (Q9XUB2 whole entry): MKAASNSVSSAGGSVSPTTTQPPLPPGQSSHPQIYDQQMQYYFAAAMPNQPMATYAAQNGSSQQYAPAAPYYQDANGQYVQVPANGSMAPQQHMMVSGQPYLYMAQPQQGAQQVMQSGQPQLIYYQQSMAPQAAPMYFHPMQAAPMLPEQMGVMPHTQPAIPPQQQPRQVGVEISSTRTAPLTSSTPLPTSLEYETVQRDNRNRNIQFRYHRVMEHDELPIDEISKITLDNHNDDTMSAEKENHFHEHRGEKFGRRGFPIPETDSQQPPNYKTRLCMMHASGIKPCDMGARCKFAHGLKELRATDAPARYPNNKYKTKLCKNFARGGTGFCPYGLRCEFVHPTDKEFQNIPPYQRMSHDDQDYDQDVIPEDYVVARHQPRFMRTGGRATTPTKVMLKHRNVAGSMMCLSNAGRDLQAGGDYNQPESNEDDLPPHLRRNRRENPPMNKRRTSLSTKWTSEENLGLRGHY
# Caspase-6 = Caspase-6 (Homo sapiens, UniProt P55212); experiment: inhibition of CASP6 peptide cleavage – biochemical, VEID-R110 fluorescence, cherry-pick, dose response (AID 720632)
# Chain of Caspase-6 (P55212 24-179 limits assumed): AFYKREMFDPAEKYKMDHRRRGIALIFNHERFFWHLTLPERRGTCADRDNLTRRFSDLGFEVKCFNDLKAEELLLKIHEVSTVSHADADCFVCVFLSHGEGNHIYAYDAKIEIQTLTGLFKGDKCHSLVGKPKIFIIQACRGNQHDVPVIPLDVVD
# Chain of Caspase-6 (P55212 194-293 limits assumed): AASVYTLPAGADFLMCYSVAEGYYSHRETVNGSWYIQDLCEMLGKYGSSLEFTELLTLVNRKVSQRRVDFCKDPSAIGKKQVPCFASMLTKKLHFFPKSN
# [9] = target: T3, RNA-binding protein pos-1 (Caenorhabditis elegans, UniProt G5EF15); experiment: disruptors of C. elegans POS-1 RNA interaction – biochemical, fluorescence polarization, dose response (AID 1964);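 also: purified POS-1 fused to maltose binding protein made in E. coli; potency of compounds blocking POS-1 binding to fluorescent RNA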
# T3 sequence (G5EF15 whole entry): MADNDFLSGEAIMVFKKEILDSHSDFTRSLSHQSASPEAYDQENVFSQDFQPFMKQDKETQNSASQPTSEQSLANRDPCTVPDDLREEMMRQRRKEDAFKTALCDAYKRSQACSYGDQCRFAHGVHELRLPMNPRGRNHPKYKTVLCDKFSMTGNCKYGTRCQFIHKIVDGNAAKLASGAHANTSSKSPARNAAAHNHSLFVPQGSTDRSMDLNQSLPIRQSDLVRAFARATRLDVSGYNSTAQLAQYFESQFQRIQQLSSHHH
# [10] = HIV-1 Vif–A3G interaction blockers – biochemical, TR-FRET, GST-Vif 1-94, biotin-A3G peptide, dose response retest, primary screen (AID 1117319); assay type: functional;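 also: TR-FRET signal of purified GST-Vif binding a biotinylated A3G peptide; inhibitors lower the FRET signal by blocking Vif and A3G binding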
# Prothrombin = Prothrombin (Homo sapiens, UniProt P00734); experiment: Thrombin 1536 HTS Dose Response Confirmation. [Related pubchem assays: 1046 (Thrombin 1536 HTS; hits were confirmed in this assay)]; assay type: functional
# [11] = M. tuberculosis growth inhibition, HTS (AID 449762); assay type: functional
# [12] = system: Streptococcus sp. 'group A'; experiment: Streptococcus pyogenes SK(-)GAS viability under kanamycin – luminescence, BacTiterGlo, confirmation, counter-screen for streptokinase expression inhibitor project, dose response (AID 1900); assay type: functional, organism-based
# Streptococcus = experiment: GAS UMAA2166 growth inhibition – luminescence, BacTiterGlo, counter-screen for streptokinase expression inhibitor project, dose response (AID 1915); assay type: functional, organism-based;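 also: potency for reduction of bacterial viability or growth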
# [13] = IGROV1 cell killing – plate reader, dry powder samples, PAX8 inhibitor project, dose response (AID 743043); assay type: functional, cell-based; details: IGROV-1
# [14] = A2780 cell killing – plate reader, dry powder samples, cytotoxicity control, dose response (AID 743046); assay type: functional, cell-based
# [15] = COV362 cell viability loss – plate reader, dry powder, SA12, cytotoxicity control for PAX8 inhibitor project, dose response (AID 743144); assay type: functional, cell-based
# [16] = COV434 cell viability loss – plate reader, dry powder, SA7, cytotoxicity control for PAX8 inhibitor project, dose response (AID 743145); assay type: functional, cell-based
# [17] = inhibitors acting on PAX2 in cells – cell-based, plate reader, dry powder samples, selectivity assay for PAX8 inhibitor project, dose response (AID 743048); assay type: functional;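 also: HEK293 cells carrying a WT1 promoter luciferase reporter driven by expressed Pax2; potency is for inhibition of Pax2 driven reporter signal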
compound,measurement,setting,value
O=C(Nc1cccc2c1CCCC2)c1cc([N+](=O)[O-])ccc1Cl,EC50,[1],6.84 µM (active)
same,IC50,Ephrin type-A receptor 4,> 100 µM (not active)
same,EC50,[2],7.64 µM (active)
CCC(C)C(=O)N1c2ccccc2C(=C2SC(C(=O)OC)=C(C(=O)OC)S2)C(=S)C1(C)C (stereo not drawn),IC50,[3],> 66 µM (inactive)
same,IC50,Nonstructural protein 1,17.7 µM (active)
same,CC50,Vero [4],21.6 µM (active)
same,CC50,Vero [5],> 100 µM (active)
same,IC50,[6],> 66 µM (inactive)
CCOC(=O)c1ccc(NC(=O)CSc2nnc(COc3ccccc3OC)n2C)cc1,IC50,[7],> 100 µM (active)
CCCOc1ccc(-c2nn(-c3ccccc3)cc2/C=C2\SC(=S)N(C3CCS(=O)(=O)C3)C2=O)cc1 (stereo not drawn),IC50,Ephrin type-A receptor 4,12 µM (active)
CCOc1cc(N2CCOCC2)c(OCC)cc1NC(C)C(=O)N1CCN(CC)CC1 (stereo not drawn),EC50,[8],> 300 µM (inconclusive)
same,AC50,Caspase-6,46.7 µM (active)
same,EC50,[9],82.7 µM (active)
COc1ccc(/C=N/NC2=NC(=O)C(c3ccccc3)S2)c(OC)c1 (stereo not drawn),IC50,[10],> 100 µM (active)
CSc1nc(-c2ccccc2)nn1C(=O)c1ccc(C)cc1,IC50,Prothrombin,0.028 µM (active)
Cc1ccc(S(=O)(=O)CN=C(S)c2ccc3ccccc3c2)cc1,IC50,[11],> 100 µM (active)
same,EC50,[12],3.01 µM (active)
same,EC50,Streptococcus,> 150 µM (not active)
N#C[C@H]1[C@@H](c2ccc(C#Cc3cccc(F)c3)cc2)[C@@H](CO)N1C(=O)C1CCCC1,AC50,[13],10.6 µM (active)
same,AC50,[14],17.6 µM (active)
same,AC50,[15],> 70 µM (inactive)
same,AC50,[16],> 70 µM (inactive)
same,AC50,[17],> 70 µM (inactive)
